# Data: PubChem BioAssay (NCI)
#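 Here, GI50 denotes the concentration required for 50% inhibition of growth. Definition used: TGI = concentration required for complete inhibition of growth.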
# Key:
# Assay in all cases: DTP human tumour cell line panel, 384-well format
# SK-MEL-28 melanoma = system: SK-MEL-28 melanoma
# T-47D breast = system: T-47D breast
# A498 renal = system: A498 renal
# UACC-62 melanoma = system: UACC-62 melanoma
# SF-539 CNS = system: SF-539 CNS
# HL-60(TB) leukemia = system: HL-60(TB) leukemia
# U251 glioblastoma = system: U251 glioblastoma
# SF-268 CNS = system: SF-268 CNS
# UACC-257 melanoma = system: UACC-257 melanoma
# MOLT-4 leukemia = system: MOLT-4 leukemia
# TK-10 renal = system: TK-10 renal
# LOX IMVI melanoma = system: LOX IMVI melanoma
# MCF7 breast = system: MCF7 breast
# SK-OV-3 ovarian = system: SK-OV-3 ovarian
# HT29 colon = system: HT29 colon
# MDA-MB-435 melanoma = system: MDA-MB-435 melanoma
# HCC-2998 colon = system: HCC-2998 colon
# RPMI-8226 leukemia = system: RPMI-8226 leukemia
# PC-3 prostate = system: PC-3 prostate
# SK-MEL-5 melanoma = system: SK-MEL-5 melanoma
# NCI-H226 lung = system: NCI-H226 lung
# UO-31 renal = system: UO-31 renal
# BT-549 breast = system: BT-549 breast
# K-562 leukemia = system: K-562 leukemia
# MALME-3M melanoma = system: MALME-3M melanoma
# MDA-MB-468 breast = system: MDA-MB-468 breast
# OVCAR-8 ovarian = system: OVCAR-8 ovarian
# NCI-H522 lung = system: NCI-H522 lung
# OVCAR-5 ovarian = system: OVCAR-5 ovarian
# SK-MEL-2 melanoma = system: SK-MEL-2 melanoma
# IGROV1 ovarian = system: IGROV1 ovarian
# M14 melanoma = system: M14 melanoma
# RXF 393 renal = system: RXF 393 renal
# A549 NSCLC = system: A549 NSCLC
# CAKI-1 renal = system: CAKI-1 renal
# HOP-92 NSCLC = system: HOP-92 NSCLC
# KM12 colon = system: KM12 colon
# SR leukemia = system: SR leukemia
# CCRF-CEM leukemia = system: CCRF-CEM leukemia
# SF-295 CNS = system: SF-295 CNS
# NCI-H460 NSCLC = system: NCI-H460 NSCLC
# 786-0 renal = system: 786-0 renal
# NCI-H322M lung = system: NCI-H322M lung
# OVCAR-4 ovarian = system: OVCAR-4 ovarian
# HCT-15 colon = system: HCT-15 colon
compound,measurement,setting,value
Cc1c(Nc2nccc3cc(CN4CC[C@@H](O)C4)cnc23)cccc1-c1cccc(-c2nc3cc(CN4CC[C@@H](C(=O)O)C4)cc(C#N)c3o2)c1C,GI50,SK-MEL-28 melanoma,261 nM
same,TGI,SK-MEL-28 melanoma,1620 nM
same,GI50,T-47D breast,325 nM
same,TGI,T-47D breast,> 100000 nM
same,GI50,A498 renal,391 nM
same,TGI,A498 renal,1490 nM
same,GI50,UACC-62 melanoma,304 nM
same,TGI,UACC-62 melanoma,1850 nM
same,GI50,SF-539 CNS,274 nM
same,TGI,SF-539 CNS,971 nM
same,GI50,HL-60(TB) leukemia,172 nM
same,TGI,HL-60(TB) leukemia,314 nM
same,GI50,U251 glioblastoma,335 nM
same,TGI,U251 glioblastoma,1150 nM
same,GI50,SF-268 CNS,371 nM
same,TGI,SF-268 CNS,3960 nM
same,GI50,UACC-257 melanoma,229 nM
same,TGI,UACC-257 melanoma,1040 nM
same,GI50,MOLT-4 leukemia,171 nM
same,TGI,MOLT-4 leukemia,315 nM
same,GI50,TK-10 renal,1660 nM
same,TGI,TK-10 renal,> 100000 nM
same,GI50,LOX IMVI melanoma,668 nM
same,TGI,LOX IMVI melanoma,1860 nM
same,GI50,MCF7 breast,223 nM
same,TGI,MCF7 breast,1430 nM
same,GI50,SK-OV-3 ovarian,246 nM
same,TGI,SK-OV-3 ovarian,1180 nM
same,GI50,HT29 colon,213 nM
same,TGI,HT29 colon,496 nM
same,GI50,MDA-MB-435 melanoma,47.3 nM
same,TGI,MDA-MB-435 melanoma,206 nM
same,GI50,HCC-2998 colon,318 nM
same,TGI,HCC-2998 colon,1250 nM
same,GI50,RPMI-8226 leukemia,152 nM
same,TGI,RPMI-8226 leukemia,290 nM
same,GI50,PC-3 prostate,403 nM
same,TGI,PC-3 prostate,1750 nM
same,GI50,SK-MEL-5 melanoma,94.8 nM
same,TGI,SK-MEL-5 melanoma,321 nM
same,GI50,NCI-H226 lung,449 nM
same,TGI,NCI-H226 lung,3730 nM
same,GI50,UO-31 renal,3250 nM
same,TGI,UO-31 renal,> 100000 nM
same,GI50,BT-549 breast,140 nM
same,TGI,BT-549 breast,532 nM
same,GI50,K-562 leukemia,205 nM
same,TGI,K-562 leukemia,567 nM
same,GI50,MALME-3M melanoma,127 nM
same,TGI,MALME-3M melanoma,851 nM
same,GI50,MDA-MB-468 breast,117 nM
same,TGI,MDA-MB-468 breast,310 nM
same,GI50,OVCAR-8 ovarian,514 nM
same,TGI,OVCAR-8 ovarian,1830 nM
same,GI50,NCI-H522 lung,118 nM
same,TGI,NCI-H522 lung,287 nM
same,GI50,OVCAR-5 ovarian,522 nM
same,TGI,OVCAR-5 ovarian,> 100000 nM
same,GI50,SK-MEL-2 melanoma,26.2 nM
same,TGI,SK-MEL-2 melanoma,142 nM
same,GI50,IGROV1 ovarian,1070 nM
same,TGI,IGROV1 ovarian,> 100000 nM
same,GI50,M14 melanoma,259 nM
same,TGI,M14 melanoma,866 nM
same,GI50,RXF 393 renal,137 nM
same,TGI,RXF 393 renal,390 nM
same,GI50,A549 NSCLC,441 nM
same,TGI,A549 NSCLC,2970 nM
same,GI50,CAKI-1 renal,464 nM
same,TGI,CAKI-1 renal,> 100000 nM
same,GI50,HOP-92 NSCLC,297 nM
same,TGI,HOP-92 NSCLC,1970 nM
same,GI50,KM12 colon,69.7 nM
same,TGI,KM12 colon,679 nM
same,GI50,SR leukemia,28.9 nM
same,TGI,SR leukemia,107 nM
same,GI50,CCRF-CEM leukemia,147 nM
same,TGI,CCRF-CEM leukemia,287 nM
same,GI50,SF-295 CNS,416 nM
same,TGI,SF-295 CNS,1450 nM
same,GI50,NCI-H460 NSCLC,193 nM
same,TGI,NCI-H460 NSCLC,435 nM
same,GI50,786-0 renal,334 nM
same,TGI,786-0 renal,1260 nM
same,GI50,NCI-H322M lung,416 nM
same,TGI,NCI-H322M lung,> 100000 nM
same,GI50,OVCAR-4 ovarian,459 nM
same,TGI,OVCAR-4 ovarian,4980 nM
same,GI50,HCT-15 colon,1530 nM
same,TGI,HCT-15 colon,3010 nM
